The subject of data set [1] is murine HCC cell line (Hepa1-6). Put plainly: AldeRed assay in Hepa1-6 cells. Format: cell-based, mouse. On the procedure: Cultures of tumor cells or primary monocyte-derived cells were treated with C86, C91, C99, BMS 493 (Tocris, 3509) or Win 18446 (Tocris, 4736) at a time and concentration indicated in corresponding figure legends.
(§1) The AldeRed assay (EMD Millipore) was performed according to manufacturer's instructions to identify cells with ALDH activity. In brief, single-cell suspensions of Huh7, Huh1, SNU449, SNU398, HEP3B, PLC, Hepa 1-6, Hep55, and AL458A cultured cells or single-cell suspension generated from enzymatic digestion of tumors generated from transplantation of these cells in mice (as indicated in figure legends) were incubated with a fluorescent and non-toxic ALDH substrate (AldeRed 588-A); the fluorescent product accumulates in cells proportional to their ALDH activity. The amount of fluorescence produced is measured by flow cytometry. The ALDH inhibitor diethylaminobenzaldehyde (DEAB, provided with the AldeRed assay kit) was used as a negative control for background fluorescence assessment.

For data set [2], the system named is SNU398 cells. Put plainly: In vitro proliferation and viability of human HCC cell lines. Format: cell-based. On the procedure: FIG. 20D: LC-MS for ATRA on Hepa1-6 (mouse HCC cell line) or SNU398 (human HCC cell line). […] Two independent experiments were performed with at least three replicates per experimental group. Unpaired t test, two-tailed. *, P<0.05; **, P<0.01; ***, P<0.001. […] Cell proliferation was measured by counting live cell numbers at each time point. […] Cell proliferation was measured by counting live cell numbers at each time point.
Cell viability was measured by flow cytometry (FCM) with 7-AAD staining (Y-axis indicates percentage of 7-AAD negative cells).
1×10^4~2×10^5 of Huh7, Huh1, Hepa 1-6, and Hep55 tumor cells were plated in triplicate in 48-well plates or 6-well plates. Viable cell numbers were counted every day for three to four days.

For data set [3] the following is noted: mouse, in vivo.
Protocol: Male CD1 or C57BL/6J mice between 6 and 8 weeks old and weighing approximately 20 to 30 grams were dosed with compound 86, compound 91, and compound 99 at 2 mg/kg (IV), 10 mg/kg (PO), and 10 or 30 mg/kg (IP). The compounds were formulated using a 20% hydroxypropyl-beta-cyclodextrin (HPbCD) solution in saline, was made on the day of dosing or directly prior to dosing. Each treatment group consisted of three mice, and plasma was collected at 5 minutes, 15 minutes, 30 minutes, 1 hour, 2 hours, 4 hours, 8 hours, 12 hours, and 24 hours post-dose for IV administration and at 15 minutes, 30 minutes, 1 hour, 2 hours, 4 hours, 8 hours, 12 hours, and 24 hours post-dose for PO administration. Approximately 0.025 mL of blood was collected from the dorsal metatarsal vein at each time point. […] Plasma samples were then stored in polypropylene tubes, quickly frozen, and kept at −75° C. until analyzed by LC/MS/MS. The following pharmacokinetic parameters were measured: Terminal half-life (T½), Concentration at immediately after injection (C0), Maximum concentration (Cmax), Time to reach max concentration (Tmax), Clearance (CL), Volume of distribution (Vd), Area under the curve (AUClast), and bioavailability (% F). Animals were also monitored during the in-life phase by once daily cage side observations; any adverse clinical signs were noted as part of the PK report.
Data set [4] relates to SNU398 cells. Nature of the data set: RT-qPCR of Raldh1, Raldh2 and Raldh3 transcripts in SNU398 cells. The class given is cell-based, human. The note with it: SNU398, 24 hours. On the procedure:
FIG. 21A: Transcript levels (RT-qPCR) of Raldh1, Raldh2 and Raldh3 in SNU398 cells treated with different concentrations of C86 or C91 for 24 hours. FIG. 21B: Homology modeling identifies differences in amino acid residues between human and murine RALDH1 at sites predicted to bind RALDH1-INH. FIG. 21C: SNU398 cells were treated with various concentrations of C86 or C91 for 24 hours. Cell viability was measured by flow cytometry (FCM) with 7-AAD staining (Y-axis indicates percentage of 7-AAD negative cells).
Total RNA from mouse tissue samples and in vitro cultured cells was isolated using GenElute Mammalian Total RNA Miniprep Kit (Sigma) following the manufacturer's protocol. Total RNA from human FFPE samples was isolated by using Quick-RNA FFPE Miniprep Kit (Zymo Research) using the manufacturer's protocol. 1000 ng of RNA was used for reverse transcription using High Capacity RNA to cDNA Kit (Life Technologies). The cDNA product was 10× diluted. 2.5 μL of this cDNA was used for qPCR for each sample. Three or more replicates were used for each reaction. […] Expression fold was calculated as 2^−(CT target gene−CT housekeeping gene). Quantitative PCRs were run on a Viia 7 real time PCR system (ThermoFisher). The following target and housekeeping genes were measured using the commercially available TaqMan probes (ThermoFisher): […]
For orientation: Quantitative PCR measures a nucleic acid by following its amplification.

A short description of data set [5]: Pharmacokinetics IV and PO in CD-1 mice, plasma. The class given is in vivo. The conditions noted are these: mouse plasma. The text has this: The PK studies were done at NIH or a commercial CRO—Pharmacon using their in-house standard protocol. […] For C99, IV and PO, performed at NIH using CD-1 mice; formulation: 20% HPbCD in saline.
In data set [6] the test system is SNU398 human HCC cells. Nature of the data set: AldeRed (Aldefluor) assay in SNU398 cells. Format: cell-based. Here is the method:
as §1
The Aldefluor assay has been used to identify and isolate cells with high ALDH activities. This assay is based on the principle that ALDH can convert the ALDH-substrate, Bodipy-aminoacetaldehyde (BAAA) into Bodipy-aminoacetate (BAA) which is retained inside the cells. BAAA is uncharged and can diffuse freely into intact viable cells, however BAA cannot cross the membrane due to its net negative charge, which makes remain in the cells and the assay buffer prevents efflux of the BAA from the cells. Therefore, the amount of BAA fluorescence in cells is proportional to ALDH activity and can be measured using a flow cytometer. A specific inhibitor of ALDH, diethylaminobenzaldehyde (DEAB), is used for background fluorescence control.

Data set [7] relates to Hepa 1-6 cells. Nature of the data set: In vitro proliferation and viability of Hepa 1-6 cells. The note with it: murine HCC cell line Hepa 1-6. Format: cell-based, mouse.
Data set [8] has as its system human RALDH isozymes. Nature of the data set: IC50 on human RALDH isozymes (FIG. 29A). The class given is biochemical.
The test system of data set [9] is murine fibrosarcoma (FS) cell line. Put plainly: FS murine fibrosarcoma in C57BL6/J mice. The class given is in vivo, mouse. The conditions noted are these: 25 mg/kg everyday. Here is the method: FIGS. 28A-28G: C99 inhibits murine RALDH1 and suppresses murine HCC growth. FIG. 28A: AldeRed assay was performed on Hepa1-6 (murine HCC, left graph) and SNU398 (human HCC, right graph) cells with or without different concentration of C99 (x-axis). Shown is the percentage of AldeRed-positive cells (y-axis) after 24 hours exposure to C99. Murine RALDH1 is sensitive to C99. FIG. 28B: Hepa1-6 cells were treated with different concentrations of C99 in vitro and the number of viable cells were counted at different time points. […] FIG. 28C: C57BL6/J mice were implanted subcutaneously with Hepa1-6 cells and the tumor-bearing mice. To prevent spontaneous rejection of this cell line, mice were treated with anti-CD3. Once the tumors reached around 50 mm^3 size, mice were treated with C86 or C99 (i.p., 20 mg/kg) every day. […] C99, but not C86, suppresses murine HCC growth. Two independent experiments were performed with at least three replicates per experimental group. […]
Cultured Huh7, Huh1, Hepa 1-6, Hep55, and FS (as indicated in figure legends) tumor cells were detached using 0.25% trypsin (Gibco, catalog #25200056), washed once with 1×PBS, and counted before implantation. […] Tumor dimensions were measured using a caliper starting at the day indicated in the accompanying figure legend and every two to three days thereafter; volume was calculated by using formula Length*Width^2/2. […]

The test system of data set [10] is Hepa 1-6 tumors. Put plainly: Hepa 1-6 tumors in mice. Format: in vivo, mouse. Here is the method: FIGS. 28A-28G: C99 inhibits murine RALDH1 and suppresses murine HCC growth. FIG. 28A: AldeRed assay was performed on Hepa1-6 (murine HCC, left graph) and SNU398 (human HCC, right graph) cells with or without different concentration of C99 (x-axis). Shown is the percentage of AldeRed-positive cells (y-axis) after 24 hours exposure to C99. Murine RALDH1 is sensitive to C99. FIG. 28B: Hepa1-6 cells were treated with different concentrations of C99 in vitro and the number of viable cells were counted at different time points. […] FIG. 28C: C57BL6/J mice were implanted subcutaneously with Hepa1-6 cells and the tumor-bearing mice. To prevent spontaneous rejection of this cell line, mice were treated with anti-CD3. Once the tumors reached around 50 mm^3 size, mice were treated with C86 or C99 (i.p., 20 mg/kg) every day. […] C99, but not C86, suppresses murine HCC growth. Two independent experiments were performed with at least three replicates per experimental group. Unpaired t test, two-tailed. FIG. 28D: Tumors in (FIG. 28C) were harvested at endpoint, single-cell suspension generated, and AldeRed assay was performed along with surface staining with immune cell markers. Shown is the percentage of AldeRed-positive cells in nonleukocytes (CD45 negative, mostly tumor cells) under the different treatment conditions. Two independent experiments were performed with at least three replicates per experimental group. Unpaired t test, two-tailed. FIG. 28E: FCS base frequency of Macrophages (F4/80^+ cells) within CD45^+ leukocytes in tumor tissues from experiment outlined in (FIGS. 28C-28D). Two independent experiments were performed with at least three replicates per experimental group. Unpaired t test, two-tailed. FIG. 28F: Hepa1-6 tumor-bearing NU/J mice were treated with chlodronate liposomes (CloLipo) and/or C86/C99. CloLipo treatment suppresses tumor growth and renders tumors insensitive to C99. Two independent experiments were performed with at least three replicates per experimental group. Unpaired t test, two-tailed. FIG. 28G: The murine fibrosarcoma (FS) cell line was implanted subcutaneously into C57BL6/J mice. Mice were treated with 25 mg/kg of C-99 or vehicle everyday starting one day after tumor cell transplantation. *, P<0.05; **, P<0.01; ***, P<0.001; ns, not significant.
Cultured Huh7, Huh1, Hepa 1-6, Hep55, and FS (as indicated in figure legends) tumor cells were detached using 0.25% trypsin (Gibco, catalog #25200056), washed once with 1×PBS, and counted before implantation. 3~6×10^6 tumor cells were implanted subcutaneously (s.c.) into shaved flanks of recipient mice. Tumor dimensions were measured using a caliper starting at the day indicated in the accompanying figure legend and every two to three days thereafter; volume was calculated by using formula Length*Width^2/2. Tumor volumes of 2,000 mm^3, tumor length of 2 cm or tumor ulceration were used as endpoints for survival analyses.
To deplete T cells, 200 μg of mouse CD3-specific antibody (clone 17A2) was administered i.p. starting three days before tumor implantation and repeated every three to four days until mouse sacrifice. To deplete macrophages, 200 μL of clodronate liposome (CloLipo) or PBS-liposome (CtrlLipo) (both Liposoma) was administered i.p. starting three days prior to tumor implantation and repeated every four days until mouse sacrifice. Macrophage depletion efficacy in spleen and within tumors was confirmed by flow cytometry using canonical macrophage marker F4/80. […]

Where [11] appears, read: intravenous administration, 2 mg/kg.
[12] abbreviates: male, CD-1, intravenous administration, 2 mg/kg.
Where [13] appears, read: male, CD-1, oral administration, 10 mg/kg.

“Also recorded” adds a separate entry of the source. Like-named read-outs stand apart in the source and are kept apart here.

As a reminder, the Cmax is the maximum level reached in the sampled fluid or tissue. As usually defined, the AUC(0-inf) is the area under the concentration-time curve extrapolated to infinity. Low values mean less exposure, high ones more exposure. For orientation: half-life means the time needed for the level to fall by half in the phase considered.

Take `CS(=O)(=O)N1CCN(C(=O)c2cnc3ccc(F)cc3c2-c2ccc(C3(C#N)CC3)cc2)CC1` [Compound C-91, 1-(4-(6-fluoro-3-(4-(methylsulfonyl)piperazine-1-carbonyl)quinolin-4-yl)phenyl)cyclopropane-1-carbonitrile]: the AldeRed fluorescence result in data set [1] (murine HCC cell line Hepa1-6, 24 hours) is on record as “no change in AldeRed fluorescence; also recorded: failed to reduce AldeRed fluorescence”. The “HCC cell growth in vitro” value in data set [2] (SNU398, 1, 10, 100 and 1000 nM) is “did not inhibit HCC cell growth in vitro”. Besides, in data set [2] (live cell counts over 3 days, 7-AAD staining 24 hours), the “cell death / cell viability in human HCC cell lines” value is listed as “not due to increased cell death or reduced cell viability”. Further, in [3], the signs of toxicity result is “no signs of toxicity have been observed”. The “transcription of other RALDH isozymes” value in [4] is given as “did not lead to compensatory increases in transcription”. In [5] (setting [11]), the “AUC0-∞” value turned out to be 1830 ng·h/mL, the Cmax came out at 1997 ng/mL and the Vss was 1.4 L/kg. In addition, in data set [5] (oral administration, 10 mg/kg), the “AUC0-∞” value was found to be 6980 ng·h/mL, the Cmax is listed as 1530 ng/mL and the F was determined as 76%. The “RALDH activity, Aldered assay, in HCC cells” value in [6] (FIGS. 7-8) is recorded as “significantly reduced RALDH activity”. Further, in [6] (SNU398 cells in vitro, 100 nM, DMSO control), the “RALDH activity as detected by Aldered (Aldefluor) assay” value was “abrogated”.

For `C=CS(=O)(=O)N1CCN(c2c(C(=O)N3CCN(S(C)(=O)=O)CC3)cnc3ccc(F)cc23)CC1` [Compound C-99, (6-fluoro-4-(4-(vinylsulfonyl)piperazin-1-yl)quinolin-3-yl)(4-(methylsulfonyl)piperazin-1-yl)methanone], the “RALDH1 activity (AldeRed-positive cells)” value in data set [1] (murine HCC cell line, 24 hours exposure) was “suppressed RALDH1 activity”; in data set [6] (human HCC cell line, 24 hours exposure), “suppressed RALDH1 activity”. For the same molecule, the “proliferation or viability in vitro” value in [7] was “did not reduce proliferation or viability”. For the same molecule, the AUC(0-inf) was 37 ng·h/mL in data set [5] (setting [12]) and 11 ng·h/mL in data set [5] (setting [13]). Moreover, the half-life is 6 min in [5] (setting [12]) and 30 min in [5] (setting [13]). Moreover, the clearance in data set [5] (male, CD-1, intravenous administration, 2 mg/kg, read-out: CLp) stood at 887 mL/min/kg. Further, the Cmax in data set [5] (male, CD-1, intravenous administration, 2 mg/kg, read-out: Cmax) was 117 ng/mL; in [5] (male, CD-1, oral administration, 10 mg/kg, read-out: Cmax) it was 16 ng/mL. The Vd in data set [5] (male, CD-1, intravenous administration, 2 mg/kg, read-out: Vss) was 2.7 L/kg. The molecule also showed a F in [5] (oral administration, 10 mg/kg) of 6.3%. In addition, the “concentration range suppressing RALDH1 activity” value in data set [6] (AldeRed assay, FIG. 28A and FIG. 20A) is given as “micromolar”. For the same molecule, the “IC50 relative to C86” value in [8] is recorded as “significantly greater than that of C86”. Also, the fibrosarcoma growth entry in data set [9] is “did not suppress fibrosarcoma growth”. Besides, the “sensitivity of TAM-depleted tumors to treatment” value in data set [10] (Hepa 1-6, CloLipo-treated) was “insensitive to C99 treatment”. In data set [10] (Hepa 1-6 in C57BL6/J mice treated with anti-CD3, i.p., 20 mg/kg every day), the “tumor growth in vivo” value is “significantly suppressed tumor growth in vivo”. In [10] (Hepa 1-6 tumors at endpoint), the “frequency of TAMs within the TME” value is on record as “reduced”. Moreover, the “AldeRed activity in tumor cells” value in [10] (Hepa 1-6 tumors at endpoint, CD45 negative cells) is given as “reduced AldeRed activity in tumor cells”.

The values above are taken from patent US20260248799A1, “COMBINATIONS OF RETINALDEHYDE DEHYDROGENASE 1 (RALDH1) INHIBITORS AND IMMUNOSTIMULATORS AND METHODS USING SAME” (The Trustees of the University of Pennsylvania, priority 2023, published 2026).
